pIC50: −log10 of the molar value. Where a SMILES comes first, the peptide text is derived from it. The star is where a group is joined. Dansyl = CN(C)c1cccc2c(S(=O)(=O)*)cccc12
Columns and labels:
[1] = Inhibition of yeast farnesyltransferase using dansyl-GCVIA as substrate preincubated for 5 mins measured over 300 secs by continuous fluorescence assay; set-up: species or system Saccharomyces cerevisiae
[2] = Inhibition of rat farnesyltransferase using dansyl-GCVIA as substrate preincubated for 5 mins measured over 300 secs by continuous fluorescence assay
[3] = organism: Rattus norvegicus; assay: Activity of rat farnesyltransferase
[4] = organism: Rattus norvegicus; assay: Ratio of […] to Km for rat farnesyltransferase

| kcat [3] [s⁻¹] | kcat/Km [4] [M⁻¹ s⁻¹] | SMILES | pIC50 [1] | pIC50 [2] |
| --- | --- | --- | --- | --- |
| – | – | C=CCCCCCCC/C(C(=O)O)=C(\C)C(=O)O | 4.87 | 6.31 |
| 0.4 | 170000 | CC(C)C[C@H](NC(=O)[C@@H](NC(=O)[C@H](CS)NC(=O)CNS(=O)(=O)c1cccc2c(N(C)C)cccc12)C(C)C)C(=O)N[C@@H](CO)C(=O)O (Dansyl-GCVLS-OH) | – | – |
| > 0.2 | 120000 | CC[C@H](C)[C@H](NC(=O)[C@@H](NC(=O)[C@H](CS)NC(=O)CNS(=O)(=O)c1cccc2c(N(C)C)cccc12)C(C)C)C(=O)N[C@@H](C)C(=O)O (Dansyl-GCVIA-OH) | – | – |
| – | – | CCCCSCCCCCCCCC/C(C(=O)O)=C(\C)C(=O)O | 5.46 | 6.72 |
| – | – | CCCCCCCCCCCCCC/C(C(=O)O)=C(\C)C(=O)O | 4.80 | 6.04 |
| – | – | CCCCCCCCCCCCCCCC/C(C(=O)O)=C(\C)C(=O)O | 4.18 | 5.59 |
| – | – | CCCCCCCCCCCC/C(C(=O)O)=C(\C)C(=O)O [CHAETOMELLIC ACID C] | 5.40 | – |
| – | – | CC(C)=CCC/C(C)=C/CC/C(C)=C/C/C(C(=O)O)=C(\C)C(=O)O | 5.62 | – |
